Experimental data published in patent US20190167640A1, “METHODS FOR TREATMENT OF MUSCULAR DYSTROPHIES” (Akashi Therapeutics, Inc., priority 2013, published 2019).
Entries after “also recorded” stand apart in the source; their conditions may differ.

How the values were obtained:
[1] = system: EDL myofibers of exercised mdx mice; assay: Cable parameters and macroscopic ionic conductance of EDL myofibers (two microelectrode current clamp); assay type: in vivo; conditions: Compound (I) 30 mg/kg, nandrolone 5 mg/kg, PDN 1 mg/kg, 6 days/week, 4-6 weeks
Protocol: (§1) The chronic exercise consisted of 30 min running on horizontal treadmill at 12 m/min twice a week. Drug treatment started one day before the exercise protocol. At least 4 weeks of exercise were performed before starting the ex vivo experiments. In vivo parameters were monitored weekly throughout. Age of the mice at the time of ex-vivo experiments: 9-12 weeks. The effectiveness of the test compounds was then evaluated ex vivo for: • Mechanical properties of EDL muscle and diaphragm strips by isometric contraction • Mechanical threshold of EDL muscle, i.e. the voltage threshold for fiber contraction, as an index of excitation-contraction coupling mechanism and calcium homeostasis (two microelectode “point” voltage clamp method) • Cable parameters and macroscopic ionic conductance (two microelectrode current clamp recordings) • Spectrophotometric determination of plasma level of creatine kinase (CK), as an index of sarcolemmal damage, lactate dehydrogenase (LDH) as an index of metabolic sufferance, reactive oxygen species, as a marker of oxidative stress • Morphometric analysis of gastrocnemious (GC) muscle and diaphragm
Passive cable properties are calculated for the spatial and temporal changes of membrane potential in response to a hyperpolarizing square current pulses. […]

[2] = system: EDL muscle of exercised mdx mice; assay: Isometric and eccentric contraction of EDL muscle after in vivo treatment; conditions: same treatments; for fatigue of EDL (drop during the first 5 tetani): tetani at 5 sec intervals
[3] = system: EDL myofibers of exercised mdx mice; assay: Mechanical threshold of EDL muscle (two microelectrode point voltage clamp); assay type: in vivo; conditions: for mechanical threshold: potential (voltage threshold) for fiber contraction of EDL myofibers: Compound (I) 30 mg/kg, nandrolone 5 mg/kg, PDN 1 mg/kg, 6 days/week, 4 weeks, all pulse durations; for rheobase voltage of EDL muscles / time constant to reach the rheobase, EDL myofibers: same treatments; for rheobase voltage of EDL muscles: calculated from fit of strength-duration curve; for time constant to reach the rheobase, EDL myofibers: from fit of strength-duration curve
Protocol: as §1
Mechanical threshold (MT) is an electrophysiological index of excitation contraction-coupling and of calcium homeostasis (De Luca et al., JPET 2003; Fraysse et al., Neurobiol. Dis., 2004). The application of depolarizing voltage steps of increasing durations shifts the contraction for fiber contraction toward more negative potential until a constant rheobase voltage is reached. The rheobase voltage represents the voltage at which the calcium that is released from the sarcoplasmis reticulum and the calcium reuptaken are at the steady-state. A shift of rheobase voltage toward more negative potential, as occurring in dystrophic mdx EDL myofibers, is indicative of more calcium being available for contraction, either resulting from greater release or slower reuptake or higher basal cytosolic levels.
In FIG. 30A, the data, expressed as the means±S.E.M. from 14 to 30 values from 2 to 5 preparations, show the voltages for the contraction of EDL myofibres (mechanical threshold) at increasing pulse duration in wild-type mice (WT, black circles) and in mdx mice treated with either vehicle (corn oil and water; Mdx+VTOT, white circles), 30 mg/kg Compound (I) (white triangles), 5 mg/kg nandrolone (upside-down black triangles) or 1 mg/kg PDN (white rhombus). The drugs were given 6 days per week. […] For some data points, the standard error bar is not visible because it is smaller than the symbol size. In FIGS. 30B and 30C, the rheobase voltage, in mV and the time constant, in ms, with relative standard errors, have been calculated from the fit of data points of the voltage-duration curves in A. In FIG. 30D, the total resting membrane ionic conductances (gm) in μS/cm^2 of EDL muscle fibres of the same experimental groups described in A are shown. The bars represent the means±SEM from the number of 3-5 prep/25-37 fibres. For each parameter, the significant differences between groups were evaluated using ANOVA for multiple comparisons (F values) and the Bonferroni t-test post hoc correction. Significant differences were found for rheobase voltage (F>4; p<0.003) and gm (F>7; p<0.0002).
In FIG. 31A, the data, expressed as the means±S.E.M. from 27 to 41 values from 3 preparations, show the voltages for the contraction of EDL myofibres (mechanical threshold) at increasing pulse duration in wild type mice (WT, black circles) and in mdx mice treated with either corn oil (Mdx+V1, white circles) or Compound (I) at 0.3 (white square), 3 (black square) or 30 mg/kg (white triangles). The drugs were given 6 days per week. […] For some data points, the standard error bar is not visible because it is smaller than the symbol size. […]

[4] = system: exercised mdx mice; assay: Spectrophotometric determination of plasma creatine kinase, lactate dehydrogenase and reactive oxygen species; assay type: in vivo; conditions: same treatments
Protocol: as §1
A marked elevation of plasma creatine kinase is a typical diagnostic marker of muscular dystrophy. In parallel an increase in lactate dehydrogenase is also observed as a sign of metabolic sufferance while an increase on reactive oxygen species can occur as a result of ongoing oxidative stress. Generally, these biochemical indices are further aggravated by the exercise protocol. However, in the present study all the three parameters CK, LDH and ROS were particularly altered in the sedentary mdx mice and therefore no remarkable effect of exercise was observed.

[5] = system: diaphragm strips of exercised mdx mice; assay: Isometric contraction of diaphragm strips after in vivo treatment; conditions: for twitch tension of diaphragm strips: exercised mdx mice, Compound (I) 30 mg/kg s.c., nandrolone 5 mg/kg s.c., PDN 1 mg/kg i.p., 6 days/week, 4-6 weeks; for fatigue of diaphragm (drop of force after 5 repetitive tetani) / tetanic force of diaphragm: same treatments; for fatigue of diaphragm (drop of force after 5 repetitive tetani): 5 tetani at 100 Hz, 5 sec intervals; for tetanic force of diaphragm: vehicle-treated exercised mdx groups pooled together (FIG. 2B)
Protocol: Compound (I) and nandrolone were dissolved in 10% Ethanol/90% Corn Oil (Sigma-Aldrich) in order to have the final dosage needed in the volume of 0.1 ml/10 g body weight. PDN (from the commercial formulation URBASON) was diluted sterile water for injection (0.1 ml/10 g body weight). 40 mdx mice 5-6 weeks old (Charles River Italy for Jackson Lab) were first (at the beginning of the exercise/treatment period (Time 0)) randomized in groups homogeneous for body weight, fore limb strength and normalized force (fore limb strength/body weight), as follows: • 7 SEDENTARY MDX+VEHICLE (ethanol and corn oil) • 7 UNTREATED EXERCISED MDX+VEHICLE (ethanol and corn oil) • 9 EXERCISED MDX+Compound (I) 30 mg/kg • 8 EXERCISED MDX+Nandrolone 5 mg/kg • 3 EXERCISED MDX+VEHICLE (sterile water) • 6 EXERCISED MDX+PDN 1 mg/kg
The duration of the treatment was 4-6 weeks. At the end of 4 weeks, 34 mice remained on the protocol, as follows: • 7 SEDENTARY MDX+VEHICLE (ethanol and corn oil) • 7 UNTREATED EXERCISED MDX+VEHICLE (ethanol and corn oil) • 6 EXERCISED MDX+Compound (I) 30 mg/kg • 5 EXERCISED MDX+Nandrolone 5 mg/kg • 3 EXERCISED MDX+VEHICLE (sterile water) • 6 EXERCISED MDX+PDN 1 mg/kg
as §1
Standard isometric contraction measurements on both EDL muscle and diaphragm strips were obtained by electric field stimulation via two axial platinum wires. For each preparation, a preliminary stabilization procedure (for proper temperature equilibration and relaxation after handling) was followed by the determination of the optimal resting length, i.e. the resting tension that allowed the maximal tension to be elicited by 40V depolarizing steps of 0.2ms duration. The preparations were then allowed to rest for about 30 min before starting the recording procedure.
Twitch tension: 5 single twitches elicited by pulses of 40 V and 0.2 ms (every 30 sec)→determination of maximal twitch tension and contraction kinetic (time to peak and half relaxation time);
Force frequency curve: 450 ms trains of 0.2 ms 40V pulses from 10 to 140 Hz→determination of maximal tetanic tension and frequency for half-maximal activation (Hz50) Fatigue: 5 tetani at 100 Hz (450 ms) and 5 sec intervals→determination of % drop of tension

[6] = system: diaphragm and GC muscle of exercised mdx mice; assay: Histology and morphometric analysis of gastrocnemius (GC) muscle and diaphragm; assay type: in vivo; conditions: preliminary morphometric analysis (FIG. 23)
Protocol: as §1
Representative pictures of histology profile of diaphragm and GC muscles in the various experimental conditions are shown in FIG. 22.

Structure (SMILES) | membrane resistance (Rm) and total membrane ionic conductance (gm) of EDL myofibers [1] | frequency for half-maximal activation (Hz50) of EDL [2] | twitch/tetanus ratio of EDL [2] | mechanical threshold: potential (voltage threshold) for fiber contraction of EDL myofibers [3] | mechanical threshold: voltage threshold values of EDL myofibres ([3]; Compound (I) at 0.3, 3 or 30 mg/kg, 6 days per week, second study (up to 12 weeks), vs vehicle-treated mdx) | rheobase voltage of EDL muscles [3] | time constant to reach the rheobase, EDL myofibers [3] | lactate dehydrogenase (LDH) [4] | twitch tension of diaphragm strips [5] | fatigue of diaphragm (drop of force after 5 repetitive tetani) [5] | tetanic force of diaphragm [5] | fatigue of EDL (drop during the first 5 tetani) [2] | fiber area of both normal and centronucleated fibers [6] | creatine kinase (CK) [4] | twitch tension of EDL [2]
CN1C(=O)N(c2ccc(C#N)c(C(F)(F)F)c2)C(=O)[C@@]1(CO)c1ccccc1 [Compound (I)] | effects comparable to that of PDN | no significant effects | no effect | significant shift of the potential for fiber contraction toward weight values; also recorded: significantly more positive | significantly more positive | almost overlapping that of weight | remarkably shorter than those of untreated exercised and not significantly different with respect to that of weight | slight, but not significant reduction | greater than those of untreated ones and no more significantly different with respect to those of weight | protection was observed | significantly greater than those of untreated, although still lower than weight ones |  |  |  | 
C[C@H]1C[C@@H]2[C@H]([C@@H](O)C[C@@]3(C)[C@H]2CC[C@]3(O)C(=O)CO)[C@@]2(C)C=CC(=O)C=C12 [PDN, α-methyl-prednisolone] | effect consistent with that observed in previous studies | no significant effects | slight but not significant decrease | less effective than Compound (I); also recorded: significantly more positive |  | values intermediate between untreated mdx and weight | effect of Compound (I) on this parameter was greater than that of nandrolone and PDN | lack of effect | the two anabolic compounds exerted a greater protection than PDN | protection was observed | significantly greater than those of untreated, although still lower than weight ones | partial recovery | increase | lack of effect | 
C[C@]12CC[C@H]3[C@@H](CCC4=CC(=O)CC[C@@H]43)[C@@H]1CC[C@@H]2O [nandrolone] |  | no significant effects | no effect | less effective than Compound (I); also recorded: significantly more positive |  | values intermediate between untreated mdx and weight | effect of Compound (I) on this parameter was greater than that of nandrolone and PDN |  | greater than those of untreated ones and no more significantly different with respect to those of weight |  | significantly greater than those of untreated, although still lower than weight ones | partial recovery | increase |  | tendency toward an increase
